According to ChEMBL document CHEMBL1201862, “PubChem BioAssay data set” (2004):
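Method: 48-hour compound exposure of cells in 96-well plates, five concentrations, linear interpolation of endpoints. Here, GI50 denotes the concentration required for 50% inhibition of growth.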 Active and inactive are the calls of the source. Rule as the data show it: active = GI50 up to about 1.1 µM and inactive = higher.

How the values were obtained:
Assay in all cases: NCI anticancer screen, dose series, 48 h
[1] = tested on: 786-0
[2] = tested on: A498
[3] = tested on: A549
[4] = tested on: ACHN
[5] = tested on: BT-549
[6] = tested on: CAKI-1
[7] = tested on: CCRF-CEM
[8] = tested on: COLO 205
[9] = tested on: DU-145
[10] = tested on: EKVX
[11] = tested on: HCC 2998
[12] = tested on: HCT-116
[13] = tested on: HCT-15
[14] = tested on: HL-60
[15] = tested on: HOP-62
[16] = tested on: HOP-92
[17] = tested on: HT-29
[18] = tested on: Hs-578T
[19] = tested on: IGROV-1
[20] = tested on: K562
[21] = tested on: KM12
[22] = tested on: LOX IMVI
[23] = tested on: M14
[24] = tested on: MCF7
[25] = tested on: MDA-MB-231
[26] = tested on: MDA-MB-435
[27] = tested on: MDA-N
[28] = tested on: MOLT-4
[29] = tested on: NCI-H23
[30] = tested on: NCI-H460
[31] = tested on: NCI-H522
[32] = tested on: NCI/ADR-RES
[33] = tested on: OVCAR-3
[34] = tested on: OVCAR-4
[35] = tested on: OVCAR-5
[36] = tested on: PC-3
[37] = tested on: RXF 393
[38] = tested on: SF-268
[39] = tested on: SF-295
[40] = tested on: SF-539
[41] = tested on: SK-MEL-28
[42] = tested on: SK-MEL-2
[43] = tested on: SK-MEL-5
[44] = tested on: SN12C
[45] = tested on: SNB-19
[46] = tested on: SNB-75
[47] = tested on: SR
[48] = tested on: SW-620
[49] = tested on: T47D
[50] = tested on: TK-10
[51] = tested on: U-251
[52] = tested on: UACC-257
[53] = tested on: UACC-62
[54] = tested on: UO-31
[55] = tested on: Malme-3M
[56] = tested on: RPMI-8226
[57] = tested on: SK-OV-3

Measured: GI50

C[N+](C)(C)[BH-](Br)C(O)O (centres undefined)
> 100 µM: [13]
inactive: [1] > 100 µM | [2] > 100 µM | [3] > 100 µM | [4] > 100 µM | [5] > 100 µM | [6] > 100 µM | [7] > 100 µM | [8] > 100 µM | [9] > 100 µM | [10] > 100 µM | [11] > 100 µM | [12] > 100 µM | [14] > 100 µM | [15] > 100 µM | [16] > 100 µM | [17] > 100 µM | [18] > 100 µM | [19] > 100 µM | [20] > 100 µM | [21] > 100 µM | [22] > 100 µM | [23] > 100 µM | [24] > 100 µM | [25] > 100 µM | [26] > 100 µM | [27] > 100 µM | [28] > 100 µM | [29] > 100 µM | [30] > 100 µM | [31] > 100 µM | [32] > 100 µM | [33] > 100 µM | [34] > 100 µM | [35] > 100 µM | [36] > 100 µM | [37] > 100 µM | [38] > 100 µM | [39] > 100 µM | [40] > 100 µM | [41] > 100 µM | [42] > 100 µM | [43] > 100 µM | [44] > 100 µM | [45] > 100 µM | [46] 40.6 µM | [47] > 100 µM | [48] > 100 µM | [49] > 100 µM | [50] > 100 µM | [51] > 100 µM | [52] > 100 µM | [53] > 100 µM | [54] > 100 µM

[N-]=[N+]=Nc1c(C=O)c(=O)n(-c2ccccc2)c2ccccc12
18.4 µM: [13]
active: [2] 0.0778 µM
inactive: [1] 18.5 µM | [3] 39.3 µM | [4] 19 µM | [5] 31.8 µM | [6] 14 µM | [7] 3.09 µM | [8] 13.5 µM | [9] 25.5 µM | [11] 19.1 µM | [12] > 10 µM | [14] 52.4 µM | [15] 29.3 µM | [16] 13.4 µM | [17] 23.1 µM | [18] 25.1 µM | [19] 16.6 µM | [20] 3.89 µM | [21] 54.5 µM | [22] 14.8 µM | [23] 18 µM | [24] 27 µM | [25] 40.3 µM | [26] 18.5 µM | [27] 37.8 µM | [28] 2.63 µM | [55] 15.6 µM | [29] 16.8 µM | [30] 29.6 µM | [32] 23.7 µM | [33] 16.1 µM | [34] 16.7 µM | [35] 55.8 µM | [36] 14.4 µM | [56] > 10 µM | [37] 12.1 µM | [38] 47.8 µM | [39] 75.5 µM | [40] 73.5 µM | [41] 16.9 µM | [42] 29.2 µM | [43] 14.1 µM | [57] 31.5 µM | [44] 42.3 µM | [45] 57 µM | [46] 24.8 µM | [47] 6.64 µM | [48] 2.51 µM | [49] 13.9 µM | [50] 19.5 µM | [51] 28.6 µM | [52] 22.9 µM | [53] 15 µM | [54] 16.2 µM
